The structures appear in SMILES notation. Activity calls are given as the source filed them. No cut-off for these calls is given here.

For experiment [1], the target named is T1, GABA-A receptor; alpha-2/beta-3/gamma-2 (Homo sapiens, UniProt P18507+P28472+P47869).
T1 sequence (P18507 whole entry): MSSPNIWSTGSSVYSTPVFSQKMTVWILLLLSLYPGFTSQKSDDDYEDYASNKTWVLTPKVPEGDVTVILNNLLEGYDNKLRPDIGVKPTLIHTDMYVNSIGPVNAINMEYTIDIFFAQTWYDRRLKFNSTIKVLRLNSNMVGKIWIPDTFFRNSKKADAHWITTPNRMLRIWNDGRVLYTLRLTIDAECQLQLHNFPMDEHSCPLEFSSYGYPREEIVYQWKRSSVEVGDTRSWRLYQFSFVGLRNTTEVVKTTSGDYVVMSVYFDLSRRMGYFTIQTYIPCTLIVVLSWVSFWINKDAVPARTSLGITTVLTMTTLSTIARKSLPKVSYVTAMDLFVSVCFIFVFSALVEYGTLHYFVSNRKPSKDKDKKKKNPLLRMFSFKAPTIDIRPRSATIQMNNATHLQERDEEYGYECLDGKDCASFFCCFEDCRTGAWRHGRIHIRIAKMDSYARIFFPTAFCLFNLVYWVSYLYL
T1 sequence (P28472 whole entry): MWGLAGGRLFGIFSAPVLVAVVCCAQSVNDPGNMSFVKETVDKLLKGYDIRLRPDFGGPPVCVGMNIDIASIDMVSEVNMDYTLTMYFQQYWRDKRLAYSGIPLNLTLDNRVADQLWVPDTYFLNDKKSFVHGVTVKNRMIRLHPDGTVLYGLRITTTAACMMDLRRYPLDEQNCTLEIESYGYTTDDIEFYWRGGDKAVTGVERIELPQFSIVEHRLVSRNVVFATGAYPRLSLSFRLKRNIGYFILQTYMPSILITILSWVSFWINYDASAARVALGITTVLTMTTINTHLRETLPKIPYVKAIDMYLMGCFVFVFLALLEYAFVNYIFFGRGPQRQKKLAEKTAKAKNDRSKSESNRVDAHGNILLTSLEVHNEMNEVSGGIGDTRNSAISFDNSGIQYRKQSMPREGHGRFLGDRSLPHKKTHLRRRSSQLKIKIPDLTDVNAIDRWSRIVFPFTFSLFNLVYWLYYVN
T1 sequence (P47869 whole entry): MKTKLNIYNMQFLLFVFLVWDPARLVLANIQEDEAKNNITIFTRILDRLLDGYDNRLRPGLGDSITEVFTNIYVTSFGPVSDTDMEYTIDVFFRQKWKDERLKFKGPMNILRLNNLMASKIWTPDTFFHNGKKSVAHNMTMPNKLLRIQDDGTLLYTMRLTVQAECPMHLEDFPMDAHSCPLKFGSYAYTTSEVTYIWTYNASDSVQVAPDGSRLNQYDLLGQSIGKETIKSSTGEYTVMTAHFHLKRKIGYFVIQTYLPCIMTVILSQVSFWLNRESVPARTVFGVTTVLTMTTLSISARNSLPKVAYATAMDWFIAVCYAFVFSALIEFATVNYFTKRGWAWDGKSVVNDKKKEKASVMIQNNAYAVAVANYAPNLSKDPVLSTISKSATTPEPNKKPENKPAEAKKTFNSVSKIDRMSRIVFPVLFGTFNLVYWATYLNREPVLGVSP
The experiment in a line: Negative allosteric modulation activity at human GABAA alpha2beta3gamma2 stably expressed in HEK cells by whole cell patch clamp method. It is filed as cell-based.

A further experiment concerns HEK. Nature of the experiment: Negative allosteric modulation of human GABA receptor expressed in HEK cells assessed as inhibition of GABA-induced current in presence of EC20 concentration of GABA by patch clamp method. It counts as cell-based. The note with it: filed as negative allosteric modulator.
Experiment [2] can be described thus: Induction of cytosolic calcium ion concentration in mouse DRG other neuron subtype at 10 uM measured after 1 hr by Fura2AM dye based fluorescence microscopic analysis. It is filed as functional.
Experiment [3] addresses T2, GABA-A receptor; alpha-3/beta-3/gamma-2 (Homo sapiens, UniProt P18507+P28472+P34903).
T2 sequence (P18507 whole entry): T1 sequence (P18507 whole entry)
T2 sequence (P28472 whole entry): T1 sequence (P28472 whole entry)
T2 sequence (P34903 whole entry): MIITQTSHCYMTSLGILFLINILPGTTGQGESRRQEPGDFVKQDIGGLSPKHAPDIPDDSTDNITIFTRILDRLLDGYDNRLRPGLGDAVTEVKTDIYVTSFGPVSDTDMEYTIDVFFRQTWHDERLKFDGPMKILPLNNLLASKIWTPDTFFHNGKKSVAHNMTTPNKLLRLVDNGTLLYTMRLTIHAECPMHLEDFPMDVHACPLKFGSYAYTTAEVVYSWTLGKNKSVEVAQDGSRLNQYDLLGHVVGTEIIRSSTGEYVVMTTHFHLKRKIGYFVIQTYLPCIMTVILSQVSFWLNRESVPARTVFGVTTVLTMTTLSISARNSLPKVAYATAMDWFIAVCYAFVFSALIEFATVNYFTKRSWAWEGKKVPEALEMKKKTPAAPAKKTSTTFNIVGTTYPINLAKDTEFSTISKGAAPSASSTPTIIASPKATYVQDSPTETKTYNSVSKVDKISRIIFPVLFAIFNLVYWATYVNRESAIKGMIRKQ
Nature of the experiment: Negative allosteric modulation activity at human GABAA alpha3beta3gamma2 stably expressed in HEK cells by whole cell patch clamp method. It is filed as cell-based.

Experiment [4] can be described thus: Reduction of ATP and Kcl-induced increase in cytosolic Ca2+ ion concentration mouse DRG other neuron subtype assessed as neuron population at 10 uM measured after 1 hr by Fura2AM dye based fluorescence microscopic analysis. Set-up: scale not given: the % may be the effect or the level left. It is filed as functional.
For the next experiment, the system named is Mus musculus. The experiment in a line: Anxiolytic activity in restraint stress induced anxiety mouse model assessed as total number of responses at 2 to 50 mg/kg, ip administered measured after 5 mins by plus maze test. It is filed as functional, organism-based. The note with it: dose 2-50 mg/kg.
Experiment [5] concerns the target T3, GABA-A receptor; alpha-5/beta-3/gamma-2 (Homo sapiens, UniProt P18507+P28472+P31644).
T3 sequence (P18507 whole entry): T1 sequence (P18507 whole entry)
T3 sequence (P28472 whole entry): T1 sequence (P28472 whole entry)
T3 sequence (P31644 whole entry): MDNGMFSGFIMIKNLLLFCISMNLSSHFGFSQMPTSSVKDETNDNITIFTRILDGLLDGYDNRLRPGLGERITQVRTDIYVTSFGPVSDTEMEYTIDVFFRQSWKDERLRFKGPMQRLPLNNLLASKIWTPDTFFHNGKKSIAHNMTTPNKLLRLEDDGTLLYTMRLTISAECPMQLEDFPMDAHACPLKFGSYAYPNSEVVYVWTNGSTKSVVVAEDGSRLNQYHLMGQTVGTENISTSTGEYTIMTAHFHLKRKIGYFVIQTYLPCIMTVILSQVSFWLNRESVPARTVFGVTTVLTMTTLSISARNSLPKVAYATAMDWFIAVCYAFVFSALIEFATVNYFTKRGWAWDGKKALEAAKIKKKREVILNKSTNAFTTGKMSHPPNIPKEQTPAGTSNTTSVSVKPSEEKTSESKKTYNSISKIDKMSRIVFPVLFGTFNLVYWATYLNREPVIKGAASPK
The experiment in a line: Negative allosteric modulation activity at human GABAA alpha5beta3gamma2 stably expressed in HEK cells by patch clamp method. It is filed as cell-based. In general terms: In patch-clamp work, channel activity is measured electrically.

For another experiment, the system named is Neuron. Nature of the experiment: Negative allosteric modulation of mouse GABA receptor in mouse DRG neurons assessed as inhibition of KCl-induced response at 10 uM using cold thermosensors. It is filed as tissue-based. The conditions noted are these: filed as negative allosteric modulator.
A short description of experiment [6]: Induction of ATP and Kcl-induced increase in cytosolic Ca2+ ion concentration mouse DRG other neuron subtype assessed as neuron population at 10 uM measured after 1 hr by Fura2AM dye based fluorescence microscopic analysis. It is filed as functional.

As usually defined, the IC50 is the concentration at which inhibition is half-maximal. For the compound `CC(C)CCC[C@@H](C)[C@H]1CC[C@H]2[C@@H]3C(=O)C=C4C=CCC[C@]4(C)[C@H]3CC[C@]12C`, the IC50 in experiment [1] was 15.7 µM; in experiment [3] it was 5.5 µM; in experiment [5], 19.4 µM. The result with HEK and with Neuron was Active. Moreover, the Activity is recorded as 3% in experiment [2], 5% in experiment [4] and 7% in experiment [6]. Besides, the outcome in the experiment with Mus musculus was inactive.

The record behind these values is ChEMBL document CHEMBL5032490, “Neuroactive Type-A γ-Aminobutyric Acid Receptor Allosteric Modulator Steroids from the Hypobranchial Gland of Marine Mollusk, Conus geographus” (J Med Chem, 2021).
